From BigSolDB 2.1

CC(=O)OCC(=O)[C@@]12N=C(C)O[C@@H]1C[C@H]1[C@@H]3CCC4=CC(=O)C=C[C@]4(C)[C@H]3[C@@H](O)C[C@@]12C
solubility (mole fraction)
Settings | in acetone | in ethanol | in ethyl acetate | in isopropanol
293.15 K | 0.00618 | 0.00167 | 0.00331 | 0.00127
298.15 K | 0.00674 | 0.002 | 0.00361 | 0.00161
303.15 K | 0.00735 | 0.00236 | 0.00393 | 0.00202
308.15 K | 0.00797 | 0.00279 | 0.00426 | 0.00249
313.15 K | 0.00861 | 0.00334 | 0.00465 | 0.00305
318.15 K | 0.00946 | 0.00397 | 0.0051 | 0.0038
323.15 K | 0.0104 | 0.00477 | 0.00559 | 0.00456
328.15 K | – | 0.00566 | 0.0061 | 0.00566
333.15 K | – | 0.00663 | 0.00668 | 0.00683
338.15 K | – | 0.00795 | 0.00737 | 0.00813
343.15 K | – | 0.00957 | 0.00805 | 0.00973
348.15 K | – | – | – | 0.0121
